Data set [1] has as its system lamin A. In words: lamin A protein level by western blot in 2DD cells. Type of data set: cell-based, human. Conditions: 5 μmol/L DHB. On the procedure: (§1) Whole-cell lysates of AG01972 cells and 2DD cells were collected, separated by SDS polyacrylamide gel electrophoresis, and transferred onto polyvinylidene fluoride membrane using the liquid transfer method. The blots were blocked in 10% skim milk in Tween 0.1% tris-buffered saline 1×1 h at room temperature. The membranes were incubated during the night at 4° C. Antigen-antibody binding was detected using horseradish peroxidase-conjugated species-specific secondary antibodies, followed by enhanced chemiluminescence western blotting detection reagents. The western blot results were quantified using ImageJ software. FIG. 2a is a graph of protein levels of lamin A and progerin in AG01972 cells of DHB supplemented group and non-supplemented group. FIG. 2b is a graph of protein levels of lamin A and progerin in 2DD cells of DHB supplemented group and non-supplemented group.
(In western blotting, separated proteins are transferred to a membrane and probed.)

Data set [2] deals with lamin A. The data set can be described thus: lamin A mRNA expression by quantitative PCR in 2DD cells. Type of data set: cell-based, human. Conditions: 5 μmol/L DHB. Here is the method:
(§2) The AG01972 primary HGPS cell line was obtained from Coriell Cell Repositories (New Jersey, USA). Human dermal fibroblasts (HDF) were isolated from juvenile foreskins and termed 2DD was also used. AG01972 cells were cultured in T75 tissue culture treated flasks (Fisher, UK) containing Dulbecco's […]+Glutamax (Invitrogen, UK), supplemented with 15% fetal calf serum and 1% penicillin/streptomycin (Invitrogen) in an humidified, 37° C., 5% CO2/95% air incubator. The cells were passaged twice weekly. Cells were plated at a density of 2×10^5 into 9 cm dishes containing 13 mm diameter glass coverslips. Six hours after seeding, the AG01972 cells were treated with 0.1% dimethyl sulfoxide, different concentrations of DHB. DHB treatment was repeated 24 h after the initial treatment. The cells were analyzed after 48 h of treatment.
(§3) Total RNA was isolated using a RNeasy Micro extraction kit according to the manufacturer's protocol. An on-column DNase I digestion was performed to avoid genomic DNA amplification. […] The quantitative PCR analysis was performed following the manufacturers' instructions.
(§4) Quantification of gene expression was based on the DeltaCt Method and normalized on 18S expression. […]
(§5) The protein levels of A-type lamins and mRNA expressions of lamin A and progerin were measured 48 h after DHB treatment on AG01972 cells. […]

For data set [3], the system named is 2BS cells. In words: cell proliferation (CCK-8) of PD45 2BS cells. Type of data set: cell-based, human. Here is the method:
(§6) Human diploid fibroblast 2BS and WI38 cells were isolated from fetal lung fibroblast tissue. These cell lines were purchased from commercially available sources. Cells were grown in Dulbecco's Modification Eagle's Minimum Essential Medium (DMEM, Life Technologies Inc.) supplemented with 10% fetal bovine serum (FBS; Gibco), 2 mm glutamine, 100 U/ml penicillin, and 100 μg/ml streptomycin, in a humidified atmosphere with 5% CO2 at 37° C. These cells were considered as young at PD30 or below and fully senescent at PD50 or above Cell proliferation was assayed using the CCK-8 method. […] The absorbance values of each well were measured at day 0 (4 h after plating) and on days 1, 2, 3, 4, 5, and 6. […] At the indicated points, cells were harvested with 10% CCK-8 for one hour, and the absorbance was measured at 490 nm. Each data point was measured five times, and each curve was repeated more than three times. […] FIG. 3a is a graph of effect of DHB at different concentrations on the proliferation of PD45 2BS cells and WI38 cells measured by […]. […] FIG. 3d is a graph of quantification of SA-β-gal-positive cell rate of 2BS cells. Quantification analysis of SA-β-gal in FIG. 3d is shown that DHB (about 9%) could delay or reverse the population senescence of 2BS cells remarkably, as compared to the PD 45-DMEM group (about 55%) and PD 45 group (about 60%).

The test system of another data set is WI38 cells. The data set can be described thus: cell proliferation (CCK-8) of PD45 WI38 cells. Type of data set: cell-based, human. On the procedure: as §6
Data set [4] relates to lamin A. The data set can be described thus: lamin A protein level by western blot in AG01972 cells. It is filed as cell-based, human. Conditions: 5 μmol/L DHB. Here is the method: as §1
Data set [5] concerns 2BS cells. The data set can be described thus: senescence-associated β-galactosidase (SA-β-gal) assay in 2BS cells. It is filed as cell-based, human. Conditions: 2BS cells PD45, 0.300 μg/ml DHB; PD 45-DMEM group about 55%, PD 45 group about 60%. Here is the method:
Human diploid fibroblast 2BS and WI38 cells were isolated from fetal lung fibroblast tissue. These cell lines were purchased from commercially available sources. Cells were grown in Dulbecco's Modification Eagle's Minimum Essential Medium (DMEM, Life Technologies Inc.) supplemented with 10% fetal bovine serum (FBS; Gibco), 2 mm glutamine, 100 U/ml penicillin, and 100 μg/ml streptomycin, in a humidified atmosphere with 5% CO2 at 37° C. These cells were considered as young at PD30 or below and fully senescent at PD50 or above Senescence-associated β-galactosidase (SA-β-gal) assay: 2B S cells (PD45) grown in DMEM with/without 0.300 μg/ml DHB concentration were stained according to the method of Dimri with minor modifications (Dimri, Lee et al. 1995). […] The average value of the percentage of SA-β-gal-positive cells for each set of samples was calculated based on three independent experiments. […] FIG. 3a is a graph of effect of DHB at different concentrations on the proliferation of PD45 2BS cells and WI38 cells measured by MTT-assay. […] FIG. 3d is a graph of quantification of SA-β-gal-positive cell rate of 2BS cells. Quantification analysis of SA-β-gal in FIG. 3d is shown that DHB (about 9%) could delay or reverse the population senescence of 2BS cells remarkably, as compared to the PD 45-DMEM group (about 55%) and PD 45 group (about 60%).

Data set [6] has as its system lamin A. The data set can be described thus: lamin A mRNA expression by quantitative PCR in AG01972 cells. Type of data set: cell-based, human. Conditions: 48 h. On the procedure: as §2, §3, §4, §5
Data set [7] concerns progerin. The data set can be described thus: progerin protein level by western blot in AG01972 cells. It is filed as cell-based, human. Conditions: 5 μmol/L DHB. Here is the method: as §1
For data set [8] the following is noted: compared with berberine (BBR), Feng et al. 2015; cited from earlier work.
For data set [9], the system named is progerin. The data set can be described thus: progerin mRNA expression by quantitative PCR in AG01972 cells. Conditions: 48 h. Type of data set: cell-based, human. Here is the method: as §2, §3, §4, §5
[10] abbreviates: different concentrations of DHB, normalized on 18S.

Turning to `COc1ccc2c(c1OC)CN1CCc3cc4c(cc3C1=C2)OCO4` [DHB, Dihydroberberine], the “lamin A protein level (western blot) compared with untreated cells” value with lamin A [1] and in the data set with lamin A [4] was “decrease in lamin A” throughout. Also, the “lamin A mRNA expression” value in the data set on lamin A [2] is listed as “decrease in lamin A mRNA expression”. Moreover, the “effect on proliferation, time course” value in the data set with 2BS cells [3] (2BS (PD45) cells, 0.3 μg/ml, seven days of incubation) is given as “promoted proliferation”; with WI38 cells (WI38 (PD45) cells, 0.3 μg/ml, seven days of incubation) it was “promoted proliferation”. Further, the “optimum concentration for proliferation” value was found to be 0.3 µg/mL in the data set on 2BS cells [3] (PD45 2BS cells, FIG. 3a) and 0.3 µg/mL in the data set with WI38 cells (PD45 WI38 cells, FIG. 3a). In addition, in the data set on 2BS cells [5], the SA-β-gal-positive cell rate entry was “about 9%”. The “concentration of maximum effect on lamin A mRNA expression” value in the data set with lamin A [6] was 5 µmol/L. For the same molecule, the “lamin A mRNA expression compared with untreated cells” value in the data set on lamin A [6] (setting [10]) is “dose-dependent decrease”. The “progerin protein content (western blot) compared with untreated cells” value in the data set on progerin [7] was “significant decrease in progerin content”. The absorption entry in [8] is recorded as “improved absorption”. The oral bioavailability result in data set [8] is listed as “enhanced oral bioavailability”. The “concentration of maximum effect on progerin mRNA expression” value in the data set with progerin [9] was determined as 5 µmol/L. Also, the “progerin mRNA expression compared with untreated cells” value with progerin [9] (setting [10]) is given as “dose-dependent decrease”.

The values are drawn from patent US20230138246A1, “USE OF DIHYDROBERBERINE OR ITS DERIVATIVES FOR ANTI-AGING” (NANJING NUTRABUILDING BIO-TECH CO., LTD., priority 2021, published 2023).
